One test deals with T1, p38alpha (Homo sapiens, UniProt Q16539).
T1 construct: purchased Invitrogen PV3304
The test is described as follows: P38alpha enzyme inhibition assay (Alphascreen kinase activity assay). The class given is biochemical. The note with it: IC50 classes; 2 hours preincubation at 25° C., 250 μM ATP; read-out: p38α inhibition. The method, boiled down:
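p38alpha with 0.3 μg/ml ATF-2 fusion protein in HEPES pH 7.5 buffer (10 mM MgCl2, 2 mM DTT, 1% DMSO); compounds preincubated 2 h at 25° C, then 250 μM ATP added for 1 h at 25° C. Phospho-ATF2 detected by AlphaScreen luminescence with anti-phospho-ATF2 antibody; IC50 from concentration-response curves.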
In general terms: Bead proximity is the source of the signal in Alpha formats.

In test [1] the test system is Peripheral Blood Mononuclear Cells (PBMCs). The test is described as follows: LPS-stimulated PBMC TNFα release assay. It counts as cell-based. The conditions noted are these: IC50 classes; human PBMC, LPS 10 ng/ml, 18 h; read-out: LPS-stimulated PBMC TNFα release inhibition. Put shortly: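 Human PBMCs from healthy donors, adhered 3 h in serum-free RPMI, received compound for 1 h in 1% FBS medium before 10 ng/ml LPS for 18 h. Supernatant TNFα was measured by MSD; IC50 from percentage inhibition of control release, at least three separate experiments.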

For another test, the system named is BEAS-2B cells. The test is described as follows: TNFα-stimulated BEAS-2B IL-8 release assay. The class given is cell-based. The note with it: Homo sapiens, IC50 classes, TNF-α 10 ng/ml, 18 h, read-out: TNFα-stimulated BEAS-2B IL-8 release inhibition. Put shortly:
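BEAS-2B cells at 80-90% confluence were pre-incubated 1 h with p38 inhibitors, then stimulated 18 h at 37 °C with TNF-α (10 ng/ml). Supernatant IL-8 was measured by ELISA. IC50 was taken from sigmoidal variable-slope fits of % inhibition of control release.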

From patent publication US10100050B2 (CHIESI FARMACEUTICI S.P.A., priority 2015, dated 2018) come the findings set out here.

SMILES strings stand for the structures. Several values for one entry are separate records, joined by “and”; a condition that tells them apart may be missing. Equal entries are not always repeated. Structures can show the parent of a compound that is named as a salt.

T1 sequence (Q16539 whole entry): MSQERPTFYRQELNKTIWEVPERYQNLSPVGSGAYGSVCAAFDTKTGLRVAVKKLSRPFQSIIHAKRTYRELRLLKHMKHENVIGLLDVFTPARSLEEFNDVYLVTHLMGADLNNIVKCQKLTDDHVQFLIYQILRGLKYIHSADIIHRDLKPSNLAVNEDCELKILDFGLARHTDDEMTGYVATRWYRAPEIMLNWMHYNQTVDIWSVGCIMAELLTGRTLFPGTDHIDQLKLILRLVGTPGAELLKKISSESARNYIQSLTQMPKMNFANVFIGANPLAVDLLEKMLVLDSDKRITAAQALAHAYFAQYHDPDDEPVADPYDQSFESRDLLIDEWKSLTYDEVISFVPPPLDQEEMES

As for `CN(C)C(C)(C)c1nnc2ccc(O[C@@H]3CC[C@H](NC(=O)Nc4cc(NS(C)(=O)=O)cc(C(C)(C)C)c4)c4ccccc43)cn12` [Example 19, N-[3-tert-Butyl-5-(3-{(1S,4R)-4-[3-(1-dimethylamino-1-methyl-ethyl)-[1,2,4]triazolo[4,3-a]pyridin-6-yloxy]-1,2,3,4-tetrahydro-naphthalen-1-yl}-ureido)-phenyl]-methanesulfonamide], the IC50 on p38alpha is less than 1 nM; in test [1] it was less than 1 nM; in the test on BEAS-2B cells, less than 0.3 nM.

Take `CN1CCC[C@H]1c1nnc2ccc(O[C@@H]3CC[C@H](NC(=O)Nc4cc(NS(C)(=O)=O)cc(C(C)(C)C)c4)c4ccccc43)cn12` [Example 21]: the IC50 is less than 1 nM on p38alpha, 1 to 5 nM in test [1] and 0.3 to 1 nM in the test with BEAS-2B cells.

Consider `CN1CCCC[C@H]1c1nnc2ccc(O[C@@H]3CC[C@H](NC(=O)Nc4cc(NS(C)(=O)=O)cc(C(C)(C)C)c4)c4ccccc43)cn12` [Example 61, N-[3-tert-Butyl-5-(3-{(1S,4R)-4-[3-((S)-1-methyl-piperidin-2-yl)-[1,2,4]triazolo[4,3-a]pyridin-6-yloxy]-1,2,3,4-tetrahydro-naphthalen-1-yl}-ureido)-phenyl]-methanesulfonamide], for which the IC50 on p38alpha is less than 1 nM; in test [1] it was 1 to 5 nM; with BEAS-2B cells, greater than 1 nM.

Regarding `CN1CCC[C@@]1(C)c1nnc2ccc(O[C@@H]3CC[C@H](NC(=O)Nc4cc(C(C)(C)C)cc(S(C)(=O)=O)c4)c4ccccc43)cn12` [Example 47, 1-(3-tert-Butyl-5-methanesulfonyl-phenyl)-3-{(1S,4R)-4-[3-((S)-1,2-dimethyl-pyrrolidin-2-yl)-[1,2,4]triazolo[4,3-a]pyridin-6-yloxy]-1,2,3,4-tetrahydro-naphthalen-1-yl}-urea], the IC50 at p38alpha is less than 1 nM; in test [1] it was less than 1 nM; in the test with BEAS-2B cells, less than 0.3 nM.

Regarding `CN(CCO)Cc1cc(NC(=O)N[C@H]2CC[C@@H](Oc3ccc4nnc([C@]5(C)CCCN5C)n4c3)c3ccccc32)cc(C(C)(C)C)c1` [Example 67, 1-(3-tert-Butyl-5-{[(2-hydroxy-ethyl)-methyl-amino]-methyl}-phenyl)-3-{(1S,4R)-4-[3-((S)-1,2-dimethyl-pyrrolidin-2-yl)-[1,2,4]triazolo[4,3-a]pyridin-6-yloxy]-1,2,3,4-tetrahydro-naphthalen-1-yl}-urea], the IC50 was less than 1 nM at p38alpha, greater than 5 nM in test [1] and 0.3 to 1 nM in the test on BEAS-2B cells.

Consider `COc1c(CO)cc(C(C)(C)C)cc1NC(=O)N[C@H]1CC[C@@H](Oc2ccc3nnc(C(C)(C)N(C)C)n3c2)c2ccccc21` [Example 4, 1-(5-tert-Butyl-3-hydroxymethyl-2-methoxy-phenyl)-3-{(1S,4R)-4-[3-(1-dimethylamino-1-methyl-ethyl)-[1,2,4]triazolo[4,3-a]pyridin-6-yloxy]-1,2,3,4-tetrahydro-naphthalen-1-yl}-urea hydrochloride salt], for which the values for the IC50 (at p38alpha; in test [1]; in the test with BEAS-2B cells) were less than 1 nM, less than 1 nM and less than 0.3 nM, respectively.

`COc1c(NC(=O)N[C@H]2CC[C@@H](Oc3ccc4nnc(C(C)(C)N(C)C)n4c3)c3ccccc32)cc(C(C)(C)C)cc1NS(=O)(=O)CC(C)C` [Example 16, 2-Methyl-propane-1-sulfonic acid [5-tert-butyl-3-(3-{(1S,4R)-4-[3-(1-dimethylamino-1-methyl-ethyl)-[1,2,4]triazolo[4,3-a]pyridin-6-yloxy]-1,2,3,4-tetrahydro-naphthalen-1-yl}-ureido)-2-methoxy-phenyl]-amide hydrochloride salt]: the IC50 at p38alpha was 1 to 10 nM and < 1 nM; in test [1], 1 to 5 nM; with BEAS-2B cells, 0.3 to 1 nM.

Turning to `CN1CCC[C@H]1c1nnc2ccc(O[C@@H]3CC[C@H](NC(=O)Nc4cc(NS(=O)(=O)C5CC5)cc(C(C)(C)C)c4)c4ccccc43)cn12` [Example 36, Cyclopropanesulfonic acid [3-tert-butyl-5-(3-{(1S,4R)-4-[3-((S)-1-methyl-pyrrolidin-2-yl)-[1,2,4]triazolo[4,3-a]pyridin-6-yloxy]-1,2,3,4-tetrahydro-naphthalen-1-yl}-ureido)-phenyl]-amide], the IC50 at p38alpha was less than 1 nM; in test [1] it was 1 to 5 nM; in the test on BEAS-2B cells, 0.3 to 1 nM.

Turning to `CC(C)(C)c1cc(NC(=O)N[C@H]2CC[C@@H](Oc3ccc4nnc([C@@H]5CCCN5CCO)n4c3)c3ccccc32)cc(NS(C)(=O)=O)c1` [Example 31, N-{3-tert-Butyl-5-[3-((1S,4R)-4-{3-[(S)-1-(2-hydroxy-ethyl)-pyrrolidin-2-yl]-[1,2,4]triazolo[4,3-a]pyridin-6-yloxy}-1,2,3,4-tetrahydro-naphthalen-1-yl)-ureido]-phenyl}-methanesulfonamide], the IC50 was less than 1 nM at p38alpha, greater than 5 nM in test [1] and greater than 1 nM in the test with BEAS-2B cells.

With `C[C@H]1CCCCN1c1nnc2ccc(O[C@@H]3CC[C@H](NC(=O)Nc4cc(CN(C)CCO)cc(C(C)(C)C)c4)c4ccccc43)cn12` [Example 68, 1-(3-tert-Butyl-5-{[(2-hydroxy-ethyl)-methyl-amino]-methyl}-phenyl)-3-{(1S,4R)-4-[3-((S)-2-methyl-piperidin-1-yl)-[1,2,4]triazolo[4,3-a]pyridin-6-yloxy]-1,2,3,4-tetrahydro-naphthalen-1-yl}-urea], the IC50 on p38alpha is less than 1 nM; in test [1], greater than 5 nM; in the test on BEAS-2B cells, greater than 1 nM.

As to `Cc1c(NC(=O)N[C@H]2CC[C@@H](Oc3ccc4nnc([C@@H]5CCCN5C)n4c3)c3ccccc32)cc(C(C)(C)C)cc1NS(C)(=O)=O` [Example 57, N-[5-tert-Butyl-2-methyl-3-(3-{(1S,4R)-4-[3-((S)-1-methyl-pyrrolidin-2-yl)-[1,2,4]triazolo[4,3,a]pyridin-6-yloxy]-1,2,3,4-tetrahydro-naphthalen-1-yl}-ureido)-phenyl]-methanesulfonamide], the IC50 on p38alpha was less than 1 nM; in test [1] it was 1 to 5 nM; in the test on BEAS-2B cells, greater than 1 nM.

Take `CCN1CCC[C@@]1(C)c1nnc2ccc(O[C@@H]3CC[C@H](NC(=O)Nc4cc(NS(C)(=O)=O)cc(C(C)(C)C)c4)c4ccccc43)cn12` [Example 27, N-[3-tert-Butyl-5-(3-{(1S,4R)-4-[3-((S)-1-ethyl-2-methyl-pyrrolidin-2-yl)-[1,2,4]triazolo[4,3-a]pyridin-6-yloxy]-1,2,3,4-tetrahydro-naphthalen-1-yl}-ureido)-phenyl]-methanesulfonamide]: the figures for the IC50 (on p38alpha; in test [1]; with BEAS-2B cells) were less than 1 nM, less than 1 nM and less than 0.3 nM, respectively.

As for `CNC(=O)c1cc(C(C)(C)C)cc(NC(=O)N[C@H]2CC[C@@H](Oc3ccc4nnc([C@@H]5CCCN5C)n4c3)c3ccccc32)c1OC` [Example 7, 5-tert-Butyl-2-methoxy-N-methyl-3-(3-{(1S,4R)-4-[3-((S)-1-methyl-pyrrolidin-2-yl)-[1,2,4]triazolo[4,3-a]pyridin-6-yloxy]-1,2,3,4-tetrahydro-naphthalen-1-yl}-ureido)-benzamide hydrochloride salt], the values for the IC50 (at p38alpha; in test [1]; in the test with BEAS-2B cells) were less than 1 nM, less than 1 nM and 0.3 to 1 nM, respectively.

As for `COc1c(NC(C)=O)cc(C(C)(C)C)cc1NC(=O)N[C@H]1CC[C@@H](Oc2ccc3nnc([C@]4(C)CCCN4C)n3c2)c2ccccc21` [Example 8, N-[5-tert-Butyl-3-(3-{(1S,4R)-4-[3-((S)-1,2-dimethyl-pyrrolidin-2-yl)-[1,2,4]triazolo[4,3-a]pyridin-6-yloxy]-1,2,3,4-tetrahydro-naphthalen-1-yl}-ureido)-2-methoxy-phenyl]-acetamide], the IC50 was 1 to 10 nM at p38alpha, less than 1 nM in test [1] and less than 0.3 nM in the test with BEAS-2B cells.

In the case of `COc1c(CO)cc(C(C)(C)C)cc1NC(=O)N[C@H]1CC[C@@H](Oc2ccc3nnc([C@]4(C)CCCN4C)n3c2)c2ccccc21` [Example 3, 1-(5-tert-Butyl-3-hydroxymethyl-2-methoxy-phenyl)-3-{(1S,4R)-4-[-3-((S)-1,2-dimethyl-pyrrolidin-2-yl)-[1,2,4]triazolo[4,3-a]pyridin-6-yloxy]-1,2,3,4-tetrahydro-naphthalen-1-yl}-urea hydrochloride salt], the IC50 at p38alpha is less than 1 nM; in test [1], less than 1 nM; in the test on BEAS-2B cells, less than 0.3 nM.

For `COc1c(NC(C)=O)cc(C(C)(C)C)cc1NC(=O)N[C@H]1CC[C@@H](Oc2ccc3nnc([C@@H]4CCCN4C)n3c2)c2ccccc21` [Example 11, N-[5-tert-Butyl-2-methoxy-3-(3-{(1S,4R)-4-[3-((S)-1-methyl-pyrrolidin-2-yl)-[1,2,4]triazolo[4,3-a]pyridin-6-yloxy]-1,2,3,4-tetrahydro-naphthalen-1-yl}-ureido)-phenyl]-acetamide], the IC50 on p38alpha was less than 1 nM; in test [1], less than 1 nM; with BEAS-2B cells, greater than 1 nM.

For `CNC(=O)c1cc(NC(=O)N[C@H]2CC[C@@H](Oc3ccc4nnc([C@@H]5CCCN5C)n4c3)c3ccccc32)cc(C(C)(C)C)c1` [Example 54, 3-tert-Butyl-N-methyl-5-(3-{(1S,4R)-4-[3-((S)-1-methyl-pyrrolidin-2-yl)-[1,2,4]triazolo[4,3-a]pyridin-6-yloxy]-1,2,3,4-tetrahydro-naphthalen-1-yl}-ureido)-benzamide], the figures for the IC50 (at p38alpha; in test [1]; with BEAS-2B cells) were less than 1 nM, 1 to 5 nM and greater than 1 nM, respectively.
